Test results taken from publication PMC6216040, “Repurposing of an old drug: In vitro and in vivo efficacies of buparvaquone against Echinococcus multilocularis” (International Journal for Parasitology: Drugs and Drug …, 2018).
Like-named read-outs stand apart in the source and are kept apart here.

Tested on: E. multilocularis metacestodes
Experiment: PGI-assay: drug-induced damage on in vitro cultured metacestodes (Pathogen Box screening cascade and EC50)
Assay type: cell-based, Echinococcus multilocularis
Conditions: 10 µM, singlets; for cytotoxicity at 10 µM: Echinococcus multilocularis
[1] = 120 h, 5 days of incubation, read-out: PGI release, % of the Tx-100 control, 5d
[2] = 288 h, 12 days of incubation, read-out: PGI release, % of the Tx-100 control, 12d

| SMILES | PGI release, % of the Tx-100 control, 5d (5 days of incubation) [%] | PGI release, % of the Tx-100 control, 12d (12 days of incubation) [%] | cytotoxicity at 10 µM [1] [%] | cytotoxicity at 10 µM [2] [%] |
| --- | --- | --- | --- | --- |
| CCOc1ccc2cc(-c3nn(CC4CCN(C)CC4)c4ncnc(N)c34)ccc2c1 [MMV688854] | -0.71 | 0.93 | – | – |
| O=C1Nc2ccc(Br)cc2C12NCCc1c2[nH]c2ccccc12 (stereo not drawn) [MMV006239] | 0.78 | 2.27 | – | – |
| COc1cccc(-c2nc3c(N4CCCC4)cccc3n2CC2CCCN2)n1 (stereo not drawn) [MMV687703] | 1.13 | -0.35 | – | – |
| NC(=O)c1cc(-c2ccsc2)ccc1OCCOc1ccccc1 [MMV687138] | -3.72 | 0.14 | – | – |
| Cc1ccc2c(c1C)NC(=O)C21NN=C(c2ccccc2)S1 (stereo not drawn) [MMV019189] | 4.07 | -1.23 | – | – |
| CNCCC(Oc1ccc(C(F)(F)F)cc1)c1ccccc1 (stereo not drawn) [MMV001561, Fluoxetine, reference compound] | – | – | -1.25 | -5.98 |
| CCOc1ccc(-c2nc(NC(=O)CS(=O)(=O)c3ccccc3)sc2C)cc1 [MMV007638] | -0.28 | 0.13 | – | – |
| CS(=O)(=O)c1cccc(-c2cnc3[nH]cc(-c4ccc(CCC(=O)O)cc4)c3c2)c1 [MMV026020] | -2.92 | -0.12 | – | – |
| O=C(C(Cc1c[nH]c2ccccc12)NS(=O)(=O)c1ccc(Cl)cc1)N1CCCCC1 (stereo not drawn) [MMV085210] | -0.40 | 0.0121 | – | – |
| CCOc1ccc2cc(-c3nn(C(C)(C)C)c(N)c3C(N)=O)cnc2c1 [MMV688853] | -1.41 | -6.45 | – | – |
| CCn1cnc2c(Nc3cc(F)cc(F)c3)nc(C#N)nc21 [MMV676881] | 0.06 | -0.62 | – | – |
| O=C([C@@H](c1ccc(Cl)cc1)c1cccnc1)N1CCN(c2ccc(C(F)(F)F)cc2)CC1 [MMV689244] | -0.13 | -0.53 | – | – |
| O=[N+]([O-])c1cn2c(n1)OC[C@@H](OCc1ccc(OC(F)(F)F)cc1)C2 [MMV688755, Pretomanid, reference compound] | – | – | -0.93 | -1.01 |
| CCCS(=O)(=O)N1CCC(CO)(Cc2ccccc2C(F)(F)F)CC1 [MMV001059] | 1.56 | 1.44 | – | – |
| CN1CCC(NCc2cccc(-c3ccc(S(=O)(=O)NCc4ccccc4)cc3)c2)CC1 [MMV022029] | 0.43 | 0.82 | – | – |
| Clc1cccc(C(c2ccc(CN3CCNCC3)cc2)n2ccnc2)c1 (stereo not drawn) [MMV663250] | 0.31 | -0.31 | – | – |
| CC(=O)NC[C@H]1CN(c2ccc(N3CCOCC3)c(F)c2)C(=O)O1 [MMV687803, Linezolid, reference compound] | – | – | -0.58 | 0.38 |
| O=C(CN1CCOCC1)Nc1ccc2ncnc(Nc3ccc(OCc4cccc(F)c4)c(Cl)c3)c2c1 [MMV688274] | -0.59 | -0.94 | – | – |
| CCC(NC(=O)c1ccccc1NC(=O)c1ccc(C)cc1)C(=O)OC (stereo not drawn) [MMV019551] | -0.56 | 0.21 | – | – |
| C[C@H](C(N)=O)N1CCCC[C@@H]1c1ccc(OCc2cccc(F)c2)cc1 [MMV676270] | -0.98 | -0.91 | – | – |
| Cc1nc(-c2ccccn2)nc(NCCc2ccc(S(C)(=O)=O)cc2)c1Cl [MMV658993] | -0.19 | 1.18 | – | – |
| O=C(Nc1ccccc1-c1nc2c(C(=O)O)cccc2o1)c1ccccc1 [MMV676162] | 0.15 | 0.13 | – | – |
| O=C(NCc1cc(Cl)cc(Cl)c1)c1c(C(F)(F)F)nc2ccccn12 [MMV687699] | 0.90 | 18.76 | – | – |
| Cc1nn(Cc2ccccc2)c(Cl)c1C(=O)NC1CCCCCC1 [MMV063404] | 0.0181 | 0.28 | – | – |

| SMILES | PGI release, % of the Tx-100 control, 5d (5 days of incubation) [%] | PGI release, % of the Tx-100 control, 12d (12 days of incubation) [%] | cytotoxicity at 10 µM [1] [%] | cytotoxicity at 10 µM [2] [%] |
| --- | --- | --- | --- | --- |
| O=C(NCCc1c[nH]c2ccccc12)c1cc2ccccc2oc1=O [MMV676539] | 0.63 | 17.31 | – | – |
| OCCc1ccc(Nc2nccc(-c3nnc4ccccn34)n2)cc1 [MMV028694] | 1.98 | 1.79 | – | – |
| O=C1O[C@@H](COc2ccon2)CN1c1cc(F)c(C2=CCN(Cc3ccccc3)CC2)c(F)c1 [MMV687813] | -0.66 | -1.17 | – | – |
| Cc1cc(C2=NOC(c3cc(Cl)c(F)c(Cl)c3)(C(F)(F)F)C2)ccc1C(=O)NCc1ccc2c(c1)C(C)(C)OB2O (stereo not drawn) [MMV687776] | 0.60 | 2.49 | – | – |
| Cc1nn(C)cc1C(C)Nc1nncc(-c2ccc(C(F)(F)F)cc2)n1 (stereo not drawn) [MMV019993] | -0.77 | -1.30 | – | – |
| CC(C)(C)OC(=O)N1CCN(c2nccc(-c3ccc(-c4ccc(Cl)cc4)s3)n2)CC1 [MMV688416] | -0.30 | -2.84 | – | – |
| Nc1ncc(-c2cn[nH]c2)cc1-c1nc2cc(Cl)cnc2[nH]1 [MMV023370] | -2.33 | -3.72 | – | – |
| CCN(CC)CCCCCCNc1cc(OC)cc2c(C)ccnc12 [MMV000063, Sitamaquine, reference compound] | – | – | -0.0141 | 10.8 |
| FC(F)(F)c1ccc(N(c2cccnc2)C2CCN(c3ccc(C(F)(F)F)cn3)CC2)cc1 [MMV689243] | 0.34 | 10.04 | – | – |
| Cc1ccc2[nH]c3c(NCCN(C)C)ncnc3c2c1 [MMV006372] | 0.48 | -0.11 | – | – |
| Cc1ccc(S(=O)(=O)Nc2ccc(CN3CCN(C(=O)c4cccc(C#N)c4)CC3)cc2)cc1 [MMV689028] | 0.59 | -0.96 | – | – |
| CC(C)(C)c1cc(C(=O)N2CCN(c3nccnc3C#N)CC2)n(Cc2ccccc2)n1 [MMV023949] | -0.59 | -1.14 | – | – |
| CCN(CC)S(=O)(=O)c1ccc(Cl)c(C(=O)Nc2ccc3nc(C)sc3c2)c1 [MMV019721] | -0.43 | -1.86 | – | – |
| O=C(Nc1cccnc1)c1c(O)c2cccc3c2n(c1=O)CC3 [MMV676395] | -2.29 | 0.06 | – | – |
| Cc1cccnc1NC(=O)c1cccc(OCc2c(C)noc2C)c1 [MMV688793] | -3.90 | -0.61 | – | – |
| Cc1nn(C(=O)Nc2cccc(C(F)(F)F)c2)c(C)c1Sc1ncccn1 [MMV688552] | 0.35 | 1.89 | – | – |
| Cc1cc(=O)[nH]c(-n2nc(C)cc2C)n1 [MMV393995] | -1.49 | -4.16 | – | – |
| FC(F)(F)c1cc(NCCc2ccccc2)nc(-c2ccccn2)n1 [MMV659010] | 0.61 | 3.66 | – | – |
| C[C@]1(O)C[C@@H](c2nc(-c3ccc4ccc(-c5ccccc5)nc4c3)c3c(N)nccn32)C1 [MMV676605, Linsitinib, reference compound] | – | – | -0.48 | 0.47 |
| Cc1ccc2nc(Cl)c(CNCc3cccs3)cc2c1 [MMV676439] | -0.82 | 3.19 | – | – |
| CC1=Nc2ccc(Cl)cc2C(O)(c2ccc(C)cc2)N1CCN1CCCCC1 (stereo not drawn) [MMV688279] | 0.73 | 1.56 | – | – |
| CCc1ccc(S(=O)(=O)Nc2cc(CN3CCN(CCC(C)C)CC3)ccc2C)cc1 [MMV688124] | -0.0233 | -0.17 | – | – |
| Cn1c(=O)c2c(S(C)(=O)=O)snc2n(C)c1=O [MMV687251] | 5.41 | 6.23 | – | – |
| Cc1ccc(-c2nc(CN(Cc3ccccn3)C(C)C)cs2)o1 [MMV1088520] | -5.44 | -2.75 | – | – |
